Data taken from patent US8304452B2, “Radical scavenger and active oxygen eliminating agent” (InBiotex Inc., priority 2005, dated 2012).

Test system: human LDL
Test: Lipid peroxide-suppressing action: CuSO4-induced LDL oxidation, TBARS assay (Example 1)
Format: biochemical
Settings: 0.2 mg/mL LDL + 5 μM CuSO4, 37° C., 3 hours, mean, n=2
Experimental: As an action of capturing free group (free radical-scavenging action), the effect of N-β-alanyl-5-S-glutathionyl-3,4-dihydroxyphenylalanine (5-S-GAD) on LDL oxidation was examined. As controls, dopamine and Carnosine (under trade name; N-acetylcarnosine as the ingredient name) used as eye drops for cataract were used. LDL was prepared by a fractionation and centrifugation method. A fraction at a specific gravity of 1.019 to 1.063 g/mL in serum was defined as human LDL. 5 μM CuSO4, 5-S-GAD (3 to 100 μM) and N-acetyl-carnosine (100 μM to 10 mM) or L-carnosine (10 μM to 10 mM) were added to 0.2 mg/mL LDL, for incubation at 37° C. for 3 hours. After termination of the incubation, TBARS (a substance reactive with thiobarbituric acid) was assayed. Although the TBA reaction is a non-specific reaction, the reaction is used for a method of assaying various lipid peroxide products including malone dialdehyde. An experiment of peroxidation with copper sulfate was done twice (N=2). An aqueous solution containing 3.75 mg/mL thiobarbituric acid (TBA), 150 mg/mL trichloroacetic acid (TCA) and 0.25 N hydrochloric acid (HCl) was prepared as the TBA reagent, while tetramethoxypropane was used to prepare standard solutions (2, 5, 10, 20, 40 μM). 100 μL each of an LDL sample or a standard solution was added together with 200 μL of the TBA reagent into an Eppendorf tube (1.5 mL), which was then sealed with a cap for thorough mixing. After heating at 95° C. for 15 minutes, the resulting mixture was cooled in water and centrifuged at 3000 rpm for 5 minutes. The supernatant was assayed of the absorbance (535 nm). Based on the absorbance of the standard solutions, a standard curve was prepared. Based on the standard curve, the amount of TBARS in the LDL sample was calculated (in nmol/mg LDL protein) (mean, n=2, see Table 1 and FIG. 1).

NCCc1ccc(O)c(O)c1 [dopamine, reference compound]
Amount of TBARS (10 μM added): 58.853 nmol/mg LDL protein | Amount of TBARS (30 μM added): 4.454 nmol/mg LDL protein | Amount of TBARS (100 μM added): 4.208 nmol/mg LDL protein
